From PMC11582070, “Template-assisted covalent modification underlies activity of covalent molecular glues” (Nature Chemical Biology, 2023)

What was measured:
[1] = biological target: T1, DCAF16 (Homo sapiens, UniProt O60885+Q9NXF7); assay: intact protein MS; TR-FRET; format: binding
T1 construct: full length, in complex with DDB1ΔB; with BRD4 BD2 (template), DDB1ΔB

[2] = biological target: T1, DCAF16; assay: intact protein MS ([…] adduct alone, […] with BRD4BD2; none with C58S); TR-FRET; format: binding

C=CC(=O)Nc1ccc(C2=N[C@@H](CC(=O)OC(C)(C)C)c3nnc(C)n3-c3sc(C)c(C)c32)cc1 [compound 3, MMH1]
intact protein MS; TR-FRET [1]: DCAF16 intact mass spectrometry experiments on MMH1 and MMH2 and found similar template-assisted covalent modifications

Cc1sc2c(c1C)C(c1ccc(/C=C/C=O)cc1)=N[C@@H](CC(=O)OC(C)(C)C)c1nnc(C)n1-2 [compound 2, TMX1]
intact protein MS (8% adduct alone, 50% with BRD4BD2; none with C58S); TR-FRET [2]: By intact mass spectrometry, the DCAF16 C58S mutant completely eliminated DCAF16–TMX1 adduct formation
